Here are results for three compounds from US20120315648A1, “METHOD OF IDENTIFICATION OF CELLS THAT SHOW SENSITIVITY TO MODULATION OF SIGNALING MEDIATED BY A FIBROBLAST GROWTH FACTOR RECEPTOR OR A VARIANT THEREOF” (priority 2007, published 2012).

Assay [1] concerns RT112 bladder cancer cell line. Nature of the assay: Cell proliferation assay (methylene blue, 96-well), RT112. The following applies: Homo sapiens, RT-112; RT112 bladder cancer cells, 72 h, average of several independent assays; read-out: IC50 (nM) ± SD, proliferation inhibition. The format is cell-based. How it is done: (§1) The bladder carcinoma cell lines are grown in MEM EBS (Minimum Essential Medium with Earls Basal Salts) (Amimed, Allschwil, Switzerland, #1-31F0-I) supplemented with 1% L-glutamine (Amimed #5-10K00-H), 1% MEM NEAA (MEM Non-essential Amino Acid Solution) (Amimed #5-13K00-H), 1% Na- pyruvate (Amimed #5-60F00-H) and 10% FCS (Gibco, Invitrogen AG, Basel, Schweiz, #10082-147).
(§2) In detail, FGF-R1, FGF-R2 and FGF-R4 expression is determined by Western Blot using specific antibodies, respectively: sc-121 (Santa Cruz), sc-122 (Santa Cruz) and sc-124 (Santa Cruz). […] Cell proliferation is measured in 96-well plates. […] Upon addition of 200 μl/well HCl (3%) and incubation for 30 min at RT on a plate shaker, the Optical Density (OD) at 650 nm is measured. The concentration of inhibitor 1 providing 50% of proliferation inhibition is calculated using Excel module.
(§3) The FGF-R dependency as well as sensitivity to inhibitor 1 and/or to inhibitor 2 for each of the indicated cell lines is characterized as indicated above. The effect of inhibitor 1 and inhibitor 2 on cell viability is assessed by means of proliferation assays; the IC50s shown are the average IC50s of several independent assays (their number given by N).

The subject of assay [2] is RT4 bladder cancer cell line. Nature of the assay: Cell proliferation assay (methylene blue, 96-well), RT4. The class given is cell-based. The following applies: Homo sapiens; RT4 bladder cancer cells, 72 h, average of several independent assays; read-out: IC50 (nM) ± SD, proliferation inhibition. How it is done:
as §1, §2, §3

Assay [3] has as its system VMCUB1 bladder carcinoma cell line. Nature of the assay: Cell proliferation assay (methylene blue, 96-well), VMCUB1. The format is cell-based, human. The following applies: for IC50: Homo sapiens, VM-CUB-1, VMCUB1 bladder cancer cells, 72 h, read-out: IC50 (nM) ± SD, proliferation inhibition; for sensitivity of growth to inhibition (in words): VMCUB1 cells. How it is done: VMCUB-1: human urinary bladder transitional cell carcinoma established from a primary bladder carcinoma. Stage and histological grade are not recorded (Masters et al. 1986, loc. cit.). Cells are obtained from DSMZ ACC #400.
as §1
(§4) In detail, FGF-R1, FGF-R2 and FGF-R4 expression is determined by Western Blot using specific antibodies, respectively: sc-121 (Santa Cruz), sc-122 (Santa Cruz) and sc-124 (Santa Cruz). To determine the expression of FGF-R3, first FGF-R3 is immunoprecipitated with the antibody F-0425 from Sigma, and the immunocomplexes are subjected to Western Blot using the antibody F-0425 from Sigma. Cell proliferation is measured in 96-well plates. The cells are seeded in a volume of 100 μl per well in the growth media given above. For RT 112, RT4 and SUM52 8500 cells/well are seeded, for VMCUB1, J82, HT1197 and KMS11, 5000 cells/well are seeded, for OPM2 30000 cells/well are seeded. Medium containing FGF-R inhibitor 1, FGFR inhibitor 2 or (as control) DMSO is added 24 h after seeding, respectively. After 72 h, cells are fixed by addition of 25 μl/well glutaraldehyde (20%) for 10 min at room temperature (RT). Cells are then washed twice with 200 μl/well H2O and 100 μl Methylene Blue (0.05%) are added. After incubation for 10 min at RT, cells are washed 3× with 200 μl/well H2O. Upon addition of 200 μl/well HCl (3%) and incubation for 30 min at RT on a plate shaker, the Optical Density (OD) at 650 nm is measured. The concentration of inhibitor 1 providing 50% of proliferation inhibition is calculated using Excel module.
as §3

The subject of assay [4] is J82 bladder carcinoma cell line. Nature of the assay: Cell proliferation assay (methylene blue, 96-well), J82. The class given is cell-based, human. Particulars: for IC50: Homo sapiens, J82 bladder cancer cells, 72 h, read-out: IC50 (nM) ± SD, proliferation inhibition; for sensitivity of growth to inhibition (in words): J82 cells. How it is done: J82: human urinary bladder transitional cell carcinoma established from a primary bladder carcinoma, histological grade G3, stage T3 (Masters et al. 1986, loc. cit.). Cells are obtained from ATCC # HTB-1.
as §1, §4, §3

The test system of assay [5] is HT1197 bladder carcinoma cell line. Nature of the assay: Cell proliferation assay (methylene blue, 96-well), HT1197. The format is cell-based, human. The following applies: for sensitivity of growth to inhibition (in words): HT1197 cells; for IC50: Homo sapiens, HT1197 bladder cancer cells, 72 h, read-out: IC50 (nM) ± SD, proliferation inhibition. How it is done:
HT1197: human urinary bladder transitional cell carcinoma established from a recurrent bladder carcinoma, histological grade G4, stage T2 (Masters et al. 1986, loc. cit.). Cells are obtained from ATCC # CRL-1473.
as §1, §4, §3

For assay [6], the system named is OPM2 multiple myeloma cell line. Nature of the assay: Cell proliferation assay (methylene blue, 96-well), OPM2. The format is cell-based. The following applies: Homo sapiens, OPM-2; OPM2 multiple myeloma cells, 72 h; read-out: IC50 (nM) ± SD, proliferation inhibition. An excerpt: (§5) OPM2 and KMS11: human multiple myeloma (MM) cell lines derived from end-stage disease patients. OPM2 cells are obtained from DSMZ ACC #50.
(§6) KMS11 cells are provide by Dr. T Otsuki, Kawasaki Medical School, Okayama, Japan. Both cell lines are reported to carry the t(4,14) translocation and express a mutated, constitutively activated form of FGF-R3. In particular, OPM2 cells harbour a mutation in the ATP binding pocket in the kinase domain, which results in a change of lysine in position 650 into glutamic acid. KMS11 cells harbor a mutation in the extracellular domain of the receptor changing tyrosine in position 373 into cysteine. Both cell lines are grown in RPMI 1640 (Gibco #21875) supplemented with 1% L-glutamine (Amimed #5-10K00-H) and 20% FCS (Gibco #10082-147).
(§7) In detail, FGF-R1, FGF-R2 and FGF-R4 expression is determined by Western Blot using specific antibodies, respectively: sc-121 (Santa Cruz), sc-122 (Santa Cruz) and sc-124 (Santa Cruz). […] Cell proliferation is measured in 96-well plates. […] Upon addition of 200 μl/well HCl (3%) and incubation for 30 min at RT on a plate shaker, the Optical Density (OD) at 650 nm is measured. The concentration of inhibitor 1 providing 50% of proliferation inhibition is calculated using Excel module. […]

In assay [7] the test system is KMS11 multiple myeloma cell line. Nature of the assay: Cell proliferation assay (methylene blue, 96-well), KMS11. The class given is cell-based. Particulars: Homo sapiens, KMS-11; KMS11 multiple myeloma cells, 72 h; read-out: IC50 (nM) ± SD, proliferation inhibition.
Excerpt: as §5, §6, §7

The subject of assay [8] is FRS-2 tyrosine phosphorylation in RT4 cells. Nature of the assay: FRS-2 tyrosine phosphorylation after FGF-R inhibitor treatment (IP/Western Blot), RT4 cells. The class given is cell-based, human. The following applies: RT4 cells treated with inhibitor, FIG. 2A. How it is done: FIG. 2: Comparative analysis of FRS-2 phosphorylation following treatment with the FGF-R inhibitor PD173074 (inhibitor 1, see Methods in Example 1) in the RT4 cells, in the case of RT112 with TKI258/CHIR258, 4-Amino-5-fluoro-3[6-(4-methyl-1-piperazinyl)-1H-benzimidazol-2-yl]-2(1H)-quinolinone (inhibitor 2, see Methods in Example 1). The cell lines indicated are treated as shown. FRS-2 tyrosine phosphorylation is determined by immunoprecipitation with a specific FRS-2 antibody followed by […] Western Blotting, or by western blot using an antibody that detects phosphorylated Tyr196 on FRS2. […] Inhib. 1=inhibitor 1, Inhib. 2=inhibitor 2, DMSO=dimethyl sulfoxide.
(§8) Cells are solubilized in 1% Triton extraction buffer containing protease and phosphatase inhibitors (“lysis buffer” 50 mM Tris pH 7.5, 150 mM NaCl, 1 mM EGTA, 5 mM EDTA, 1% Triton, 2 mM NaVanadate, 1 mM PMSF and protease inhibition cocktail from Hoffmann-LaRoche, Basel, Switzerland, #1187358001). Lysates are clarified by centrifugation at 12000×g for 15 min and protein concentration is determined using the DC Protein Assay Reagents (Bio Rad, Bio-Rad Laboratories, Inc., Hercules, Calif., USA, #500-0116) (an assay based on the method of Bradford, M., see Anal. Biochem., 72, 248 (1976), employing Coomassie Blue®, ICI) and a Bovine Serum Albumin (BSA) standard. […]

Assay [9] deals with SUM52 breast carcinoma cell line. Nature of the assay: Cell proliferation assay (methylene blue, 96-well), SUM52. The following applies: Homo sapiens; SUM52 breast cancer cells, 72 h; read-out: IC50 (nM) ± SD, proliferation inhibition. The class given is cell-based. How it is done: as §4, with “After 72 h, cells are fixed by addition of 25 μl/well glutaraldehyde (20%) for 10 min at room temperature (RT). Cells are then washed twice with 200 μl/well H2O and 100 μl Methylene Blue (0.05%) are added. After incubation for 10 min at RT, cells are washed 3× with 200 μl/well H2O.” left out
as §3

Assay [10] concerns FRS-2 tyrosine phosphorylation in RT112 cells. Nature of the assay: FRS-2 tyrosine phosphorylation after FGF-R inhibitor treatment (IP/Western Blot), RT112 cells. The format is cell-based, human. Particulars: RT112 cells treated with inhibitor, FIG. 2B.
Description: The cell lines indicated are treated as shown. FRS-2 tyrosine phosphorylation is determined by immunoprecipitation with a specific FRS-2 antibody followed by anti-FRS-2 Western Blotting, or by western blot using an antibody that detects phosphorylated Tyr196 on FRS2.
Immunocomplexes are collected with protein A- or protein G-sepharose (Sigma, # P-9424; Sigma, # P-3296) and washed 3 × with lysis buffer. Bound proteins are released by boiling in 2 × sample buffer (20% SDS, 20% glycerol, 160 mM Tris pH 6.8, 4% β-mercaptoethanol, 0.04% bromo-phenol blue). […]
Assay [11] shares this test system. Nature of the assay: FRS-2 tyrosine phosphorylation upon growth factor stimulation (IP/Western Blot), RT112 cells. The following applies: aFGF/heparin 50 ng/ml//5 μg/ml, EGF 10 ng/ml, insulin 5 μg/ml, FIG. 3. The format is cell-based, human. How it is done:
(§9) FIG. 3: Comparative analysis of FRS-2 tyrosine phosphorylation upon growth factor stimulation: The bladder cancer cell lines RT112 and […] are stimulated with aFGF/heparin (50 ng/ml//5 μg/ml), EGF (10 ng/ml) (from R & D Systems, Inc., Minneapolis, Minn., USA; #236-EG-200) or insulin (5 μg/ml) (Sigma, Sigma-Aldrich, Inc., St. Louis, Mo., USA; #1882). Cells are lysed and total protein lysates are recovered. FRS-2 tyrosine phosphorylation is determined by immunoprecipitation followed by anti-pTyr antibody Western Blotting, using antibodies mentioned in Table 1 of Example 1. […] Equal amount of MAPK protein is monitored by Western Blotting with α-MAPK (MAPK in Table 1 in Example 1). […]
as §8

In assay [12] the test system is MAPK activation in RT112 cells. Nature of the assay: MAPK activation upon growth factor stimulation (anti-phosphoMAPK Western Blot), RT112 cells. The format is cell-based, human. The following applies: EGF 10 ng/ml, insulin 5 μg/ml, FIG. 3. Here is the method:
as §9, §8
(In general: Immunoblotting shows a protein as a band on a membrane.)

Entries after “also recorded” stand apart in the source; their conditions may differ.

Regarding `CCN(CC)CCCCNc1ncc2cc(-c3cc(OC)cc(OC)c3)c(NC(=O)NC(C)(C)C)nc2n1` [Inhibitor 1, PD173074], the IC50 in assay [1] is 14 ± 3 nM; in assay [2], 28 ± 8 nM; in assay [3], greater than 3000 nM; in assay [4], greater than 3000 nM; in [5], greater than 3000 nM; in [6], 148 ± 31 nM. In [7], the IC50 turned out to be 50 ± 14 nM. The “sensitivity of growth to inhibition (in words)” value in assay [3], in [4] and in [5] was “resistant to inhibition” throughout. Also, the “effect on FRS-2 tyrosine phosphorylation” value in assay [8] is “abolish FRS-2 tyrosine phosphorylation; also recorded: completely inhibits FRS-2 phosphorylation”.
For the compound `CN1CCN(c2ccc3nc(-c4c(N)c5c(F)cccc5[nH]c4=O)[nH]c3c2)CC1` [Inhibitor 2, 4-Amino-5-fluoro-3[6-(4-methyl-1-piperazinyl)-1H-benzimidazol-2-yl]-2(1H)-quinolinone], the IC50 was 60 ± 20 nM in [1]; 134 ± 58 nM in [2]; greater than 2000 nM in [3]; greater than 3000 nM in assay [4]; greater than 3000 nM in assay [5]; 190 ± 58 nM in assay [9]. Also, the IC50 in [7] was 93 nM. Besides, the “sensitivity of growth to inhibition (in words)” value in assay [3], in [4] and in [5] was “resistant to inhibition” each time. Besides, in assay [10], the “effect on FRS-2 tyrosine phosphorylation” value is listed as “abolish FRS-2 tyrosine phosphorylation”.
As for insulin, the “induction of FRS-2 tyrosine phosphorylation” value in assay [11] was “fail to induce phospho-FRS-2”. The “MAPK activation (pMAPK)” value in assay [12] is “activate MAPK”.
